Results: patent US5200429A, “Acne vulgaris treating” (Takasago International Corporation, priority 1990, dated 1993)
In brackets after ≈: the same amount, converted by molar mass. Read-outs that look alike come from different tables or passages of the source.

Experiments:
[1] = system: Propionibacterium acnes (ATCC 11827); test: Minimum inhibitory concentration (MIC) against Propionibacterium acnes (Test Example 1); type: cell-based
Method: The minimum inhibitory concentration (MIC) of caryophyllene, cedrene, longifolene, and thujopsene obtained in Preparation Example against Propionibacterium acnes (ATCC 11827) was determined as follows.
The test compound was added to a 4.6% ABCM bouillon aqueous solution (prepared by dissolving 46 g of an ABCM bouillon medium produced by Eiken Kagaku K. K. in 1 l of distilled water) in a concentration of 100 μg/ml, and the solution was stepwise diluted two times with the same medium, followed by sterilization.
A 5 ml aliquot of the solution was put in a test tube and inoculated with 0.1 ml of the culture of Propionibacterium acnes which had been preliminarily cultured so as to have a cell density of 5×10^8 cells/ml. The system was static-cultured under anaerobic conditions at 37° C. for 48 hours, and the turbidity of the cultured system was measured at a wavelength of 600 nm to obtain MIC (μg/ml).

[2] = system: Escherichia coli; settings: Indian Perfumer, 28(2), 82-87 (1984); cited from earlier work
[3] = system: several fungi; settings: Indian Perfumer, 28(2), 82-87 (1984); cited from earlier work
[4] = system: skin; settings: conventional use in acne vulgaris; cited from earlier work
[5] = system: Pseudomonas aeruginosa; settings: J. Antibact. Antifung. Agents, 8(1), 3-6 (1980); cited from earlier work
[6] = system: various molds; settings: J. Antibact. Antifung. Agents, 8(1), 3-6 (1980); cited from earlier work
[7] = system: Escherichia coli; settings: J. Antibact. Antifung. Agents, 8(1), 3-6 (1980); cited from earlier work
[8] = system: Bacillus subtilis; settings: J. Antibact. Antifung. Agents, 8(1), 3-6 (1980); cited from earlier work
[9] = Cutibacterium acnes, ATCC11827, anaerobic, 37° C., 48 hours, turbidity at 600 nm, read-out: MIC

C=C1CC/C=C(/C)CC[C@@H]2[C@@H]1CC2(C)C [Caryophyllene]
MIC ([1]; Cutibacterium acnes, ATCC11827, 48 h): 3.13 µg/mL (≈ 15.3 µM) | antimicrobial activity [2]: no activity | antimicrobial activity [3]: no activity

[H]/N=C(\N/C(=N/[H])NCCCCCCNC(=N)NC(=N)Nc1ccc(Cl)cc1)Nc1ccc(Cl)cc1 [Chlorhexidine Gluconate]
side effects [4]: side effects of causing erythema or exfoliation, causing extreme skin roughening and skin irritation

C=CCc1ccc(O)c(OC)c1 [Eugenol, reference compound]
MIC [1, 9]: 50 µg/mL (≈ 304 µM) | antimicrobial activity [2]: strong antimicrobial activity | antimicrobial activity [3]: strong antimicrobial activity

C=C1[C@H]2CC[C@@H]3[C@H]2C(C)(C)CCC[C@]13C [Longifolene]
MIC [1, 9]: 1.57 µg/mL (≈ 7.68 µM)

CC1=CC[C@]2(C)CCCC(C)(C)[C@@]23C[C@@H]13 [Thujopsene]
MIC [1, 9]: 6.25 µg/mL (≈ 30.6 µM) | antimicrobial activity [5]: any substantial antimicrobial activity on various molds, Bacillus subtilis, Escherichia coli, and Pseudomonas aeruginosa was not exhibited | antimicrobial activity [6]: any substantial antimicrobial activity on various molds, Bacillus subtilis, Escherichia coli, and Pseudomonas aeruginosa was not exhibited | antimicrobial activity [7]: any substantial antimicrobial activity on various molds, Bacillus subtilis, Escherichia coli, and Pseudomonas aeruginosa was not exhibited | antimicrobial activity [8]: any substantial antimicrobial activity on various molds, Bacillus subtilis, Escherichia coli, and Pseudomonas aeruginosa was not exhibited

Cedrene
MIC ([1]; anaerobic, 37° C., 48 hours, turbidity at 600 nm): 1.57 µg/mL
